“Also recorded” adds a separate entry of the source. Residues, ends and D or L forms follow the SMILES beside them. *: point of attachment. Cbz = O=C(OCc1ccccc1)*
How the values were obtained:
[1] = system: chymotrypsin-like activity of the proteasome; experiment: 26S proteasome fluorogenic peptidase assay in worm lysate, chymotrypsin-like (Z-GGL-AMC / Suc-LLVY-AMC); type: biochemical, C. elegans; conditions: worms at 25° C., 100 μg ml^−1 for the first three days of adulthood; FIG. 11
Description: (§1) 26S proteasome activity assays. In vitro 26S proteasome activity assays were performed as previously described [Finley, D. Recognition and processing of ubiquitin-protein conjugates by the proteasome. Annual review of biochemistry 78, 477-513 (2009)]. Worms were lysed in proteasome activity assay buffer (50 mM Tris-HCl pH 7.5, 250 mM sucrose, 5 mM MgCl2, 0.5 mM EDTA, 2 mM ATP and 1 mM dithiothreitol) using a Precellys 24 homogenizer (Bertin technologies). Lysate was centrifuged at 10,000 g for 15 min at 4° C. 25 μg of total protein lysate was transferred to a 96-well microtiter plate (BD Falcon) and incubated with fluorogenic substrate. Fluorescence (380-nm excitation, 460-nm emission) was monitored on a microplate fluorometer (Infinite M1000, Tecan) every 5 min for 1 h at 25° C.
(§2) 26S proteasome fluorogenic peptidase assays. […] Methods in enzymology 398, 364-378 (2005)]. Briefly, worms were lysed in proteasome activity assay buffer (50 mM Tris-HCl pH 7.5, 250 mM sucrose, 5 mM MgCl2, 0.5 mM EDTA, 2 mM ATP and 1 mM dithiothreitol) using a Precellys 24 homogenizer (Bertin technologies). Lysate was centrifuged at 10,000 g for 15 min at 4° C. For each experiment, 25 μg of total protein lysate was transferred to a 96-well microtiter plate (BD Falcon) then fluorogenic substrate was added. For measuring the chymotrypsin-like activity of the proteasome either Z-Gly-Gly-Leu-AMC (Enzo) or Suc-Leu-Leu-Val-Tyr-AMC (Enzo) was used. Z-Leu-Leu-Glu-AMC (Enzo) was used to measure the caspase-like activity of the proteasome and Ac-Arg-Leu-Arg-AMC for the proteasome trypsin-like activity. Fluorescence (380-nm excitation, 460-nm emission) was monitored on a microplate fluorometer (Infinite M1000, Tecan) every 5 min for 1 h at 25° C.

[2] = system: polyubiquitinylated proteins, proteasome subunits, transcription factors; experiment: Western blot of human cell extracts; type: cell-based; conditions: H9 hESCs; 62.5 nM 24 h
Description: Western Blot. For analysis of proteasome subunits, cells were collected in proteasome activity assay buffer supplemented with protease inhibitors (Roche) and lysed by passing 10 times through a 27 gauge needle attached to a 1 ml syringe. Lysate was centrifuged at 10,000 g for 10 min at 4° C. Protein concentration of the cell homogenates was determined using the BCA protein assay (Pierce). For analysis of transcription factor and polyubiquitinylated proteins, cells were harvested from tissue culture plates by cell scraping and lysed in protein cell lysis buffer (10 mM Tris-Cl pH7.4, 10 mM EDTA, 50 mM NaCl, 50 mM NaF, 1% Triton X-100, 0.1% SDS supplemented with 2 mM sodium orthovanadate, 1 mM PMSF and Complete Mini Protease and PhosSTOP inhibitor cocktail mix) for 2 hrs at 1,000 rpm and 4° C. in a Thermomixer. Protein concentrations were determined with a standard Bradford protein assay (BioRad). 20-50 μg of total protein were separated by SDS-PAGE, transferred to nitrocellulose membranes (Whatman) and subjected to immunoblotting. […]

[3] = biological target: T1, chymotrypsin-like activity of the proteasome (Caenorhabditis elegans, UniProt Q9XUV0); experiment: 26S proteasome fluorogenic peptidase assay in worm lysate, chymotrypsin-like (Z-GGL-AMC / Suc-LLVY-AMC); type: biochemical, C. elegans; conditions: inhibitor 20 min prior to substrate, vs DMSO
T1 construct: worms were lysed in proteasome activity assay buffer; from tissue; host or cells: whole-worm lysate of adult C. elegans (N2, glp-1(e2141), fer-15;fem-1, daf-16;glp-1, rpn-6.1 OE and RNAi-fed strains)
T1 sequence (Q9XUV0 65-284): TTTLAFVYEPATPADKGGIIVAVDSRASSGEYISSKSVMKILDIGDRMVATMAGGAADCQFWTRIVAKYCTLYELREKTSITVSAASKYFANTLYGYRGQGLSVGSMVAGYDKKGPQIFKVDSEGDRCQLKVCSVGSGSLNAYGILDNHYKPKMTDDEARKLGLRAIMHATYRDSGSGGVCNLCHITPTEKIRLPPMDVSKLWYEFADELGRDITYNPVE
Description: as §1, §2

hESCs = experiment: MG-132 treatment of cultured cells, cell death and detachment; type: cell-based, human; conditions: hESCs vs NPCs or neurons; data not shown
[4] = biological target: T2, chymotrypsin-like activity of the proteasome (Homo sapiens, UniProt P28074); experiment: 26S proteasome fluorogenic peptidase assay in human cell extracts, chymotrypsin-like; type: biochemical; conditions: H9 hESCs; 62.5 nM for 24 hours; vs DMSO
T2 construct: 15-25 μg of total protein of cell lysates were transferred to a 96-well microtiter plate; endogenous in cells; host or cells: H9 and HUES-6 hESCs and derived NPCs, neurons, trophoblasts and fibroblasts; BJ fibroblasts, astrocytes, HEK293T
T2 sequence (P28074 60-263): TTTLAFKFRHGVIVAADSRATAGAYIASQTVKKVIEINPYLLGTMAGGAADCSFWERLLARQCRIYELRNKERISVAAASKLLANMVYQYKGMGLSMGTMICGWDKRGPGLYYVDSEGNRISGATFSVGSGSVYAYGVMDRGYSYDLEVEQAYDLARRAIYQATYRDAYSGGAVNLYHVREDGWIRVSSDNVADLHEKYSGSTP
Description: 26S proteasome fluorogenic peptidase assays. In vitro assay of 26S proteasome activities was performed as previously described (Kisselev, A. F. & Goldberg, A. L., Methods in enzymology 398, 364-378 (2005)). Cells were collected in proteasome activity assay buffer (50 mM Tris-HCl (pH 7.5), 250 mM sucrose, 5 mM MgCl2, 0.5 mM EDTA, 2 mM ATP and 1 mM dithiothreitol) and lysed by passing 10 times through a 27 gauge needle attached to a 1 ml syringe. Lysate was centrifuged at 10,000 g for 10 min at 4° C. 15-25 μg of total protein of cell lysates were transferred to a 96-well microtiter plate (BD Falcon) and then the fluorogenic substrate was added to lysates. For measuring the chymotrypsin-like activity of the proteasome Applicants used either Z-Gly-Gly-Leu-AMC (Enzo) or Suc-Leu-Leu-Val-Tyr-AMC (Enzo). Applicants used Z-Leu-Leu-Glu-AMC (Enzo) to measure the caspase-like activity of the proteasome and Ac-Arg-Leu-Arg-AMC for the proteasome trypsin-like activity. Fluorescence (380-nm excitation, 460-nm emission) was monitored on a microplate fluorometer (Infinite M1000, Tecan) every 5 min for 1 h at 25° C. Protein concentration of the cell homogenates was determined using the BCA protein assay (Pierce).

H9 hESCs = experiment: quantitative RT-PCR in H9 hESCs; type: cell-based, human; conditions: 62.5 nM 24 h, relative to DMSO
Description: Lentiviral infection of human stem cells. hESC colonies growing on Matrigel were incubated with mTesR1 medium containing 10 μM ROCK inhibitor (Y-27632) for one hApplicants' and individualized using Accutase 1×. 5×10^5 cells were infected in suspension with 10 μl of concentrated lentivirus in the presence of 10 μM ROCK inhibitor. Cell suspension was centrifuged to remove virus, passed through a mesh of […] to obtain individual cells and plated back on a feeder layer of fresh MEFs in hESC cell media supplemented with 10 μM ROCK inhibitor. After a few days in culture, small hES cell colonies arose. For LV-GFP and LV-shFOXOs stable lines, GFP positive colonies were selected and manually passaged onto fresh MEFs to establish new hESC cell lines. For LV-non-targeting shRNA, shPSMD11, shPSMC2, FOXO4 OE, FOXO4 AAA OE and PSMD11 OE stable lines, Applicants performed 1 μg/ml puromycin resistance selection during 3 days and then colonies were manually passaged onto fresh MEFs to establish new hESC cell lines. […]
RNA isolation and quantitative RT-PCR. Total RNA was extracted using RNAbee (Tel-Test Inc). cDNA was created using the Quantitect Reverse Transcriptase kit (Qiagen). […] Data was analyzed with the comparative 2ΔΔCt method using β-actin and GAPDH as housekeeping genes. […]

[5] = fer-15(b26);fem-1(hc17) worm lysate

Row | proteasome activity in treated worms [1] | Structure (SMILES) | polyubiquitinylated proteins [2] | chymotrypsin-like proteasome activity (Z-GGL-AMC) [3, 5] | chymotrypsin-like proteasome activity (Z-GGL-AMC) ([3]; glp-1(e2141) worm lysate) | sensitivity to proteasome inhibition (cell death and detachment) (hESCs) | proteasome activity in hESCs [4] | pluripotency markers (Real Time PCR) (H9 hESCs)
1 | did not affect proteasome activity | O=c1[nH]c(=O)n([C@H]2C[C@H](O)[C@@H](CO)O2)cc1F [FUdR, 5-fluoro-2′ deoxyuridine] | – | – | – | – | – | –
2 | – | CC(C)C[C@@H](C=O)NC(=O)[C@H](CC(C)C)NC(=O)[C@H](CC(C)C)NC(=O)OCc1ccccc1 [MG-132] (Cbz-Leu-Leu-Leu-aldehyde) | induces accumulation of polyubiquitinylated proteins | blocked activity from extracts; also recorded: blocked chymotrypsin-like proteasome activity | blocked activity from extracts; also recorded: blocked chymotrypsin-like proteasome activity | hESCs were more sensitive to proteasome inhibition than NPCs or neurons | sufficient to reduce proteasome activity; also recorded: dramatically decreases proteasome activity | decreased pluripotency markers; also recorded: induces a decrease in pluripotency markers
3 | – | CC(=O)N[C@@H](CSC(=O)[C@]1([C@@H](O)C(C)C)NC(=O)[C@H](C)[C@@H]1O)C(=O)O [lactacystin] | – | blocked activity from extracts; also recorded: blocked chymotrypsin-like proteasome activity | blocked activity from extracts; also recorded: blocked chymotrypsin-like proteasome activity | – | – | –
